Assay results: PMC11502502 (Nature cancer, 2024)
Several values for one entry are separate records, joined by “and”; a condition that tells them apart may be missing. Equal entries are not always repeated.

Columns and labels:
[1] = system: MV-4–11 (AML)-xenografted mice; assay: MV-4–11 AML xenograft efficacy and overall survival; assay type: in vivo; set-up: anti-tumor efficacy in MV-4-11 (AML)-tumor bearing mice in combination with SoC (tumor measurement per animal): unit not given here; conditions: for Overall survival of MV-4-11 (AML)-tumor bearing mice: BRD-810 50 mg/kg; for anti-tumor efficacy in MV-4-11 (AML)-tumor bearing mice in combination with SoC (tumor measurement per animal): individual animals, BRD-810 50mg/kg
[2] = system: THP-1 (AML) xenografted mice; assay: THP-1 AML xenograft efficacy; assay type: in vivo; set-up: anti-tumor efficacy in THP-1 (AML)-tumor bearing mice, individual measurements: unit not given here; conditions: for anti-tumor efficacy in THP-1 (AML)-tumor bearing mice, individual measurements: Cytarabine, animals #3001-#3010

## Nc1ncn([C@@H]2O[C@H](CO)[C@@H](O)[C@H]2O)c(=O)n1 [Azacytidine]
[1]; day 0 post treatment start
  Overall survival of MV-4-11 (AML)-tumor bearing mice: 100
[1]; day 1 post treatment start
  Overall survival of MV-4-11 (AML)-tumor bearing mice: 100
  anti-tumor efficacy in MV-4-11 (AML)-tumor bearing mice in combination with SoC (tumor measurement per animal): 37.66 and 36.25 and 41.68 and 30.5 and 27.18 and 34.36 and 33.31 and 32.32 and 36.01 and 43.7
[1]; day 4 post treatment start
  Overall survival of MV-4-11 (AML)-tumor bearing mice: 100
  anti-tumor efficacy in MV-4-11 (AML)-tumor bearing mice in combination with SoC (tumor measurement per animal): 54.55 and 56.25 and 56.22 and 40.13 and 37.55 and 44.2 and 45.16 and 42.15 and 44.53 and 58.86
[1]; day 8 post treatment start
  Overall survival of MV-4-11 (AML)-tumor bearing mice: 100
  anti-tumor efficacy in MV-4-11 (AML)-tumor bearing mice in combination with SoC (tumor measurement per animal): 65.52 and 65.46 and 68.31 and 53.62 and 40.92 and 60.68 and 62.4 and 50.31 and 59.65 and 77.78
[1]; day 11 post treatment start
  Overall survival of MV-4-11 (AML)-tumor bearing mice: 100
  anti-tumor efficacy in MV-4-11 (AML)-tumor bearing mice in combination with SoC (tumor measurement per animal): 89.02 and 75.69 and 101.46 and 67.13 and 49.48 and 79.37 and 79.77 and 55.4 and 81.03 and 99.97
[1]; day 15 post treatment start
  Overall survival of MV-4-11 (AML)-tumor bearing mice: 100
  anti-tumor efficacy in MV-4-11 (AML)-tumor bearing mice in combination with SoC (tumor measurement per animal): 108.19 and 101.3 and 133.05 and 77.44 and 61.88 and 97.99 and 123.49 and 81.45 and 115.12 and 117.74
[1]; day 16 post treatment start
  Overall survival of MV-4-11 (AML)-tumor bearing mice: 100
  anti-tumor efficacy in MV-4-11 (AML)-tumor bearing mice in combination with SoC (tumor measurement per animal): 125.36 and 108.14 and 139.95 and 80.65 and 62.33 and 102.82 and 127.03 and 91.37 and 119.07 and 128.51
[1]; day 17 post treatment start
  Overall survival of MV-4-11 (AML)-tumor bearing mice: 100
  anti-tumor efficacy in MV-4-11 (AML)-tumor bearing mice in combination with SoC (tumor measurement per animal): 137.71 and 107.49 and 162.36 and 100.14 and 70.25 and 118.23 and 133.41 and 87.57 and 140.74 and 152.32
[1]; day 19 post treatment start
  Overall survival of MV-4-11 (AML)-tumor bearing mice: 0
[1]; day 22 post treatment start
  Overall survival of MV-4-11 (AML)-tumor bearing mice: 0
[1]; day 23 post treatment start
  Overall survival of MV-4-11 (AML)-tumor bearing mice: 0
[1]; day 24 post treatment start
  Overall survival of MV-4-11 (AML)-tumor bearing mice: 0
[1]; day 25 post treatment start
  Overall survival of MV-4-11 (AML)-tumor bearing mice: 0
[1]; day 28 post treatment start
  Overall survival of MV-4-11 (AML)-tumor bearing mice: 0
[1]; day 30 post treatment start
  Overall survival of MV-4-11 (AML)-tumor bearing mice: 0
[1]; day 32 post treatment start
  Overall survival of MV-4-11 (AML)-tumor bearing mice: 0
[1]; day 34 post treatment start
  Overall survival of MV-4-11 (AML)-tumor bearing mice: 0
[1]; day 37 post treatment start
  Overall survival of MV-4-11 (AML)-tumor bearing mice: 0
[1]; day 39 post treatment start
  Overall survival of MV-4-11 (AML)-tumor bearing mice: 0
[1]; day 41 post treatment start
  Overall survival of MV-4-11 (AML)-tumor bearing mice: 0
[1]; day 44 post treatment start
  Overall survival of MV-4-11 (AML)-tumor bearing mice: 0
[1]; day 46 post treatment start
  Overall survival of MV-4-11 (AML)-tumor bearing mice: 0
[1]; day 48 post treatment start
  Overall survival of MV-4-11 (AML)-tumor bearing mice: 0
[1]; day 51 post treatment start
  Overall survival of MV-4-11 (AML)-tumor bearing mice: 0
[1]; day 53 post treatment start
  Overall survival of MV-4-11 (AML)-tumor bearing mice: 0

## Nc1ccn([C@@H]2O[C@H](CO)[C@@H](O)[C@@H]2O)c(=O)n1 [cytarabine]
[2]; 45 mg kg^−1 subcutaneous, 3 days on, 4 days off
  Antitumor efficacy, single agent: neither the Bcl-2 inhibitor venetoclax nor cytarabine showed appreciable single-agent efficacy
[2]; day 1 post treatment start
  anti-tumor efficacy in THP-1 (AML)-tumor bearing mice, individual measurements: 34.55 and 34.13 and 35.27 and 36.61 and 37.97 and 29.56 and 32.2 and 26.85 and 39.7 and 33.08
[2]; day 3 post treatment start
  anti-tumor efficacy in THP-1 (AML)-tumor bearing mice, individual measurements: 56.73 and 43.71 and 46.59 and 40.5 and 59.56 and 37.55 and 48.92 and 32.47 and 41.3 and 50.46
[2]; day 6 post treatment start
  anti-tumor efficacy in THP-1 (AML)-tumor bearing mice, individual measurements: 60.86 and 46.12 and 47.28 and 41.77 and 70.74 and 42.28 and 63.75 and 27.68 and 36.96 and 52.92
[2]; day 8 post treatment start
  anti-tumor efficacy in THP-1 (AML)-tumor bearing mice, individual measurements: 80.75 and 48.31 and 57.33 and 37.06 and 69.84 and 40.98 and 72.57 and 28.68 and 37.62 and 62.2
[2]; day 10 post treatment start
  anti-tumor efficacy in THP-1 (AML)-tumor bearing mice, individual measurements: 87.52 and 55.21 and 72.45 and 39.84 and 85.66 and 45.49 and 94.07 and 29.37 and 34.83 and 74.1
[2]; day 13 post treatment start
  anti-tumor efficacy in THP-1 (AML)-tumor bearing mice, individual measurements: 101.88 and 64.15 and 91.89 and 43.02 and 99.25 and 47.84 and 115.35 and 31.51 and 35.25 and 76.99
